Columns and labels:
Settings in all cases: 1 µM; inhibitor
HIPK4 = HIPK4 (Homo sapiens, UniProt Q8NE63)
BMPR1A = BMPR1A (Homo sapiens, UniProt P36894)
SRPK1 = SRPK1 (Homo sapiens, UniProt Q96SB4)
ALK = ALK (Homo sapiens, UniProt Q9UM73)
CLK1 = CLK1 (Homo sapiens, UniProt P49759)
SIK2 = SIK2 (Homo sapiens, UniProt Q9H0K1)
MAPKAPK3 = MAPKAPK3 (Homo sapiens, UniProt Q16644)
FGFR1 = FGFR1 (Homo sapiens, UniProt P11362)
PIM1 = PIM1 (Homo sapiens, UniProt P11309)
PKCnu = PKCnu (Homo sapiens, UniProt O94806)
PAK2 = PAK2 (Homo sapiens, UniProt Q13177)
MEK2 = MEK2 (Homo sapiens, UniProt P36507)
ACVR1B = ACVR1B (Homo sapiens, UniProt P36896)
WNK1 = WNK1 (Homo sapiens, UniProt Q9H4A3)
ULK2 = ULK2 (Homo sapiens, UniProt Q8IYT8)
CSF1R = CSF1R (Homo sapiens, UniProt P07333)
MEKK2 = MEKK2 (Homo sapiens, UniProt Q9Y2U5)
FYN = FYN (Homo sapiens, UniProt P06241)
AXL = AXL (Homo sapiens, UniProt P30530)
LYN = LYN (Homo sapiens, UniProt P07948)
PKCt = PKCt (Homo sapiens, UniProt Q04759)
BMX = BMX (Homo sapiens, UniProt P51813)
PHKG2 = PHKG2 (Homo sapiens, UniProt P15735)
CDK11B = CDK11B (Homo sapiens, UniProt P21127)
FGFR3 = FGFR3 (Homo sapiens, UniProt P22607)
PKCd = PKCd (Homo sapiens, UniProt Q05655)
CAMK4 = CAMK4 (Homo sapiens, UniProt Q16566)
MARK4 = MARK4 (Homo sapiens, UniProt Q96L34)
CHK1 = CHK1 (Homo sapiens, UniProt O14757)
CDK10 = CDK10 (Homo sapiens, UniProt Q15131)
PKCe = PKCe (Homo sapiens, UniProt Q02156)

Sequence of ACVR1B (P36896 whole entry): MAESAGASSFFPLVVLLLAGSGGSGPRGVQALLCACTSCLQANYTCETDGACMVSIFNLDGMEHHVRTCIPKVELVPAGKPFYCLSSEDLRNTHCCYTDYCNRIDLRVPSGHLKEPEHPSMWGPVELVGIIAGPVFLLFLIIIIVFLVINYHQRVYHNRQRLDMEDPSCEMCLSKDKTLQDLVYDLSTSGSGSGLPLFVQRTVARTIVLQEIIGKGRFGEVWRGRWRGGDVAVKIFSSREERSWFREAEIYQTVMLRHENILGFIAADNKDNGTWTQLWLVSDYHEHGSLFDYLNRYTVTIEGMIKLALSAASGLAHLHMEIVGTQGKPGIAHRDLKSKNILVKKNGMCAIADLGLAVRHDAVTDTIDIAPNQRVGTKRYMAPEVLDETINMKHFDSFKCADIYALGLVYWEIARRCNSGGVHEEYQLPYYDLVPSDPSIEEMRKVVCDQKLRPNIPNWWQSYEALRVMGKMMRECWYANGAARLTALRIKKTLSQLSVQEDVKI
Sequence of FYN (P06241 whole entry): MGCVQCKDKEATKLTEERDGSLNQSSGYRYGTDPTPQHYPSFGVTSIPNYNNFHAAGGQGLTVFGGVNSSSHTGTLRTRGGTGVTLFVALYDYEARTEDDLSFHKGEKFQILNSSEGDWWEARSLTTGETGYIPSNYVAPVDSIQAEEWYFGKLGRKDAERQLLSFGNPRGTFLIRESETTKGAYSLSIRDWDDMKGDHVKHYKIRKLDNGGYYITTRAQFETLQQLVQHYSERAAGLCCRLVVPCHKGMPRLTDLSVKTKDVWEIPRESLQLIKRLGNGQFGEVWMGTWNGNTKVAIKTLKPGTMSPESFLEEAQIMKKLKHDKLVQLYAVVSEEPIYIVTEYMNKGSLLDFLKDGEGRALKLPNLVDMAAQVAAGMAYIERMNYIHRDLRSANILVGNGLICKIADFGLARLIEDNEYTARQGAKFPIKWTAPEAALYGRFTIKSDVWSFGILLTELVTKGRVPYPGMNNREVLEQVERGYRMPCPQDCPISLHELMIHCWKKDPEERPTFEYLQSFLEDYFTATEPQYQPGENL
Sequence of AXL (P30530 whole entry): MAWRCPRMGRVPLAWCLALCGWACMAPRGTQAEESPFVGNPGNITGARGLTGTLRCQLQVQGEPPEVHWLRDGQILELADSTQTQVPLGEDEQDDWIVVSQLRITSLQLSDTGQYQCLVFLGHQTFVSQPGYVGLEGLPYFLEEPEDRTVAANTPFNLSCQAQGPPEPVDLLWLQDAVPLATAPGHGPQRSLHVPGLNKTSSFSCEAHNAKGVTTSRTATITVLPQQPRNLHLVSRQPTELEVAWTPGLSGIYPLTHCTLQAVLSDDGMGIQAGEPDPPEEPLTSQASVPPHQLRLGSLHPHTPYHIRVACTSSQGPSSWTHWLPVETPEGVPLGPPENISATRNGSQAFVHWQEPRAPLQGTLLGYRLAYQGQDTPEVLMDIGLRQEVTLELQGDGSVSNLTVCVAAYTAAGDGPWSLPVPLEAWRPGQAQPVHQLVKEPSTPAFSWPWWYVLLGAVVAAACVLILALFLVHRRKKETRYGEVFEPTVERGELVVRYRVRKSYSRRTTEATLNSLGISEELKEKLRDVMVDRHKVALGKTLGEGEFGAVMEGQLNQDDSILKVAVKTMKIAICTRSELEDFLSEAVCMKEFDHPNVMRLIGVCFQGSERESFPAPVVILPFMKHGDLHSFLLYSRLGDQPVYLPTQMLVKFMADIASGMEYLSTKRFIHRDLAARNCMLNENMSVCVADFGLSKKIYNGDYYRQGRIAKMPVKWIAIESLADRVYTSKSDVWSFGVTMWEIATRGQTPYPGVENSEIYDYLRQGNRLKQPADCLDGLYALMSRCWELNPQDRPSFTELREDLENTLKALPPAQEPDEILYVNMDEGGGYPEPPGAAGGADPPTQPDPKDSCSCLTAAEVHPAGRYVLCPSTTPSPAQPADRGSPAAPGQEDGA
Sequence of FGFR1 (P11362 whole entry): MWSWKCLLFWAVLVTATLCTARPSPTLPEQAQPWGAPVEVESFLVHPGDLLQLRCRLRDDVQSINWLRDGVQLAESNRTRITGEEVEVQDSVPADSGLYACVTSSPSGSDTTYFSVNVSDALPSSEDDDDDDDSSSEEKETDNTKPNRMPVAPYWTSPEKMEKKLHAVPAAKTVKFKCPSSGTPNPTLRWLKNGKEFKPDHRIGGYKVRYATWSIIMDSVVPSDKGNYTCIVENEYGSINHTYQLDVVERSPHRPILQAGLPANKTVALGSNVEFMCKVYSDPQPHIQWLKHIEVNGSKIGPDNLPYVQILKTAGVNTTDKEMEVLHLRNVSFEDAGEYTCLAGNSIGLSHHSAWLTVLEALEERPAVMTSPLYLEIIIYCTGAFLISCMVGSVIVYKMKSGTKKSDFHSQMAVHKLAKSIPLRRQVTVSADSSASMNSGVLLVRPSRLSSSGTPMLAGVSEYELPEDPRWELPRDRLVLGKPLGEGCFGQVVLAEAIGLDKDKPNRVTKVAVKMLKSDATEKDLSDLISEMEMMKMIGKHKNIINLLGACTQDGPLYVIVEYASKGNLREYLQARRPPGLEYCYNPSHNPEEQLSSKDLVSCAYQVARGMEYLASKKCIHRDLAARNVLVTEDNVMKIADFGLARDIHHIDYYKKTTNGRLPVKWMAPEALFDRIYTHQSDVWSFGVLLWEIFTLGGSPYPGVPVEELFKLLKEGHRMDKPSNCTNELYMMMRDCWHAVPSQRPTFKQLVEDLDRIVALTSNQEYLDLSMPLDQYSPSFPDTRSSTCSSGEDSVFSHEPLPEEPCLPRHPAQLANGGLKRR
Sequence of CHK1 (O14757 whole entry): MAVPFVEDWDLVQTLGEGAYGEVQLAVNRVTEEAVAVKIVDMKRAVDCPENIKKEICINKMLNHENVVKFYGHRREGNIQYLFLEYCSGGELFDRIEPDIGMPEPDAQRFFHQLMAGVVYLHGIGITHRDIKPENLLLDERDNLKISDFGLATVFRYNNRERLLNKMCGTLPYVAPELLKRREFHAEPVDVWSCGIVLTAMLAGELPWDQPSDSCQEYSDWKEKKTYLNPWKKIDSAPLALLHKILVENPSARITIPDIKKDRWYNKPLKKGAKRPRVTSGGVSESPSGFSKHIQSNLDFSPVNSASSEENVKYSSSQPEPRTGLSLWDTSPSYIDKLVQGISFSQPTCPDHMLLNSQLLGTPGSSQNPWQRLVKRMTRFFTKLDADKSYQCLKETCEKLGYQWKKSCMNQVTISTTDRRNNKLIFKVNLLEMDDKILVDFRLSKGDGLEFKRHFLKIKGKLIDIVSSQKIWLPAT
Sequence of PHKG2 (P15735 whole entry): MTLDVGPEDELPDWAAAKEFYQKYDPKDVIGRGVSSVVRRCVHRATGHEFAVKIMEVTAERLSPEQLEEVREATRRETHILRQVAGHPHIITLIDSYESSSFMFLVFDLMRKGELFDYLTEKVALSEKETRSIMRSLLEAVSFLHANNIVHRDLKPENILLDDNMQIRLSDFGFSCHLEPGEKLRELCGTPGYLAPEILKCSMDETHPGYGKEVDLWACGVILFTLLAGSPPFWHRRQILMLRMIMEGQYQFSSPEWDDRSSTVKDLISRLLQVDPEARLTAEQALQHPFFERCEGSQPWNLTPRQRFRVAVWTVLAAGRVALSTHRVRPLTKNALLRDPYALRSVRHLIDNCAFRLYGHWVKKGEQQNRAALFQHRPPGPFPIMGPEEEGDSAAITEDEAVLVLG
Sequence of CLK1 (P49759 whole entry): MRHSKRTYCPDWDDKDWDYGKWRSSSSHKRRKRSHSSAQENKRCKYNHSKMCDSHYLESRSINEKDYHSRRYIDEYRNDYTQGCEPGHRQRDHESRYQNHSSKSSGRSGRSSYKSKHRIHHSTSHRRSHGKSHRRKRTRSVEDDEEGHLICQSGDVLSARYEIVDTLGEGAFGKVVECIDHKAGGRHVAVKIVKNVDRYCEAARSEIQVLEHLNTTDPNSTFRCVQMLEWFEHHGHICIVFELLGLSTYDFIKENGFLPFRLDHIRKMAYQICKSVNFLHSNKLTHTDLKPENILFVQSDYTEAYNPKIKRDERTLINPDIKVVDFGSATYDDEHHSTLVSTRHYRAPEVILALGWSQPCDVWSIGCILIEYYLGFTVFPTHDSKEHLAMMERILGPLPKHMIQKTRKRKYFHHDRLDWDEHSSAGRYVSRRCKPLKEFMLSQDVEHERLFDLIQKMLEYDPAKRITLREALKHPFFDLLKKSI
Sequence of PAK2 (Q13177 whole entry): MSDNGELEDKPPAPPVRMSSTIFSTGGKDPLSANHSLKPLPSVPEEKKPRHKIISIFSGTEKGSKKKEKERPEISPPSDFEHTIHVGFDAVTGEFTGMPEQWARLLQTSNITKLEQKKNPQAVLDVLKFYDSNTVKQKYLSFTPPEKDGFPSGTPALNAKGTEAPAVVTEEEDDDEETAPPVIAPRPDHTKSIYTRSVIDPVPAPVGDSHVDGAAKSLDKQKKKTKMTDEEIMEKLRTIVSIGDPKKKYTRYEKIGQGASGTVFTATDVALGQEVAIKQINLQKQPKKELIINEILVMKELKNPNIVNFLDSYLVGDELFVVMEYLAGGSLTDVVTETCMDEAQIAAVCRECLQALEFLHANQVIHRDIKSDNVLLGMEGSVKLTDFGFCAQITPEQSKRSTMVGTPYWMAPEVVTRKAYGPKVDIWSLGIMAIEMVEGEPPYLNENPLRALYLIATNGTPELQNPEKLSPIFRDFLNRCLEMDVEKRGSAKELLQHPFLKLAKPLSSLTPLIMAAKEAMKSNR
Sequence of PIM1 (P11309 whole entry): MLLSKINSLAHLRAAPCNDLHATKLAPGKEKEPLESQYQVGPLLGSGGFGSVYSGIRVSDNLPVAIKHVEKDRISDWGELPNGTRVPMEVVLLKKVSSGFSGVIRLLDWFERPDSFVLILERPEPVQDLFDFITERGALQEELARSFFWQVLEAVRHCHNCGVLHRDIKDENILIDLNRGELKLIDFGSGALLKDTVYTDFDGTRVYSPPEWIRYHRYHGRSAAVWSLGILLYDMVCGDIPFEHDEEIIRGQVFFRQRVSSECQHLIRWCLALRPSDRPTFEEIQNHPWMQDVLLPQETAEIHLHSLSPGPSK

21c Remaining activity, percent of control [%] (HIPK4): 115.2% | 21c Remaining activity, percent of control [%] (BMPR1A): 108.3% | 21c Remaining activity, percent of control [%] (SRPK1): 101.4% | 21c Remaining activity, percent of control [%] (ALK): 100.1% | 21c Remaining activity, percent of control [%] (CLK1): 79.0% | 21c Remaining activity, percent of control [%] (SIK2): 97.5% | 21c Remaining activity, percent of control [%] (MAPKAPK3): 95.7% | 21c Remaining activity, percent of control [%] (FGFR1): 80.9% | 21c Remaining activity, percent of control [%] (PIM1): 101.3% | 21c Remaining activity, percent of control [%] (PKCnu): 78.1% | 21c Remaining activity, percent of control [%] (PAK2): 113.2% | 21c Remaining activity, percent of control [%] (MEK2): 90.2% | 21c Remaining activity, percent of control [%] (ACVR1B): 85.2% | 21c Remaining activity, percent of control [%] (WNK1): 94.9% | 21c Remaining activity, percent of control [%] (ULK2): 96.0% | 21c Remaining activity, percent of control [%] (CSF1R): 90.9% | 21c Remaining activity, percent of control [%] (MEKK2): 103.5% | 21c Remaining activity, percent of control [%] (FYN): 56.6% | 21c Remaining activity, percent of control [%] (AXL): 80.2% | 21c Remaining activity, percent of control [%] (LYN): 139.3% | 21c Remaining activity, percent of control [%] (PKCt): 42.6% | 21c Remaining activity, percent of control [%] (BMX): 84.8% | 21c Remaining activity, percent of control [%] (PHKG2): 98.0% | 21c Remaining activity, percent of control [%] (CDK11B): 91.2% | 21c Remaining activity, percent of control [%] (FGFR3): 99.8% | 21c Remaining activity, percent of control [%] (PKCd): 91.4% | 21c Remaining activity, percent of control [%] (CAMK4): 98.0% | 21c Remaining activity, percent of control [%] (MARK4): 100.1% | 21c Remaining activity, percent of control [%] (CHK1): 112.0% | 21c Remaining activity, percent of control [%] (CDK10): 85.1% | 21c Remaining activity, percent of control [%] (PKCe): 86.5%
Compound: O=C1NCCCCCNc2nc(c3ccccc3n2)Nc2cc1[nH]n2 [21c, (Z)-3^1H-2,5,11-triaza-1(4,2)-quinazolina-3(3,5)-pyrazolacycloundecaphan-4-one]

— doi:10.1101/2023.10.20.563248v1 (biorxiv, 2023)
